Source: patent US6486199B1, “Spiro and dispiro 1,2,4-trioxolane antimalarials” (Medicines for Malaria Venture MMV International Centre …, priority 2001, dated 2002)
Marks after values point to notes of the source that are not given here.

Experiments:
[1] = system: P. berghei; assay: 4-day Peters test against P. berghei in vivo; conditions: 4 day
[2] = differential scanning calorimetry (DSC), thermal stability; assay type: physicochemical; conditions: thermal decomposition
[3] = system: P. berghei; assay: 1-day Peters test against P. berghei in vivo; conditions: for oral activity based on po ED50/ED90 values: ranking among trioxolanes and controls
[4] = system: ANKA strain of P. Berghei; assay: single dose STI in vivo screen in infected Moro SPF mice; conditions: for Activity (%) po / Activity (%) sc: percent reduction in parasitemia day 3 post-infection
Protocol: In the single dose STI in vivo screen, Moro SPF mice infected with the ANKA strain of P. Berghei (groups of three mice) were treated on day one post-infection with trioxolanes dissolved or suspended in 3% ethanol and 7% Tween 80. […] Antimalarial activity was measured by percent redution in parasitemia on day three post-infection and survival times compared to an untreated control group. Survival to day 30 post-infection is considered to be a cure.

[5] = system: adult schistosomes (49-day-old) of Schistosoma mansoni; assay: effect on adult schistosomes (49-day-old) in mice; assay type: in vivo; conditions: single 400 mg/kg per os
Protocol: Mice were infected with 100 Schistosoma mansoni cercariae […]. Each group was treated per os with OZ compounds at a single dose of 400 mg/kg. Untreated mice served as the control. All groups were killed 4 weeks after treatment and the liver and intestine were removed and separated. The liver and intestine were compressed and alive male and female worms could be seen and counted.

[6] = system: chloroquine-resistant K1 strain of P. falciparum; assay: in vitro screen against chloroquine-resistant K1 strain of P. falciparum; assay type: cell-based; conditions: in vitro

| Compound | P. berghei (4 day) ED50 po [1] | P. berghei (4 day) ED90 po [1] | Tm dec. (° C.) [2] | P. berghei (1 day) ED50 po [3] | P. berghei (1 day) ED90 po [3] | P. berghei (1 day) ED90 sc [3] | other results |
| --- | --- | --- | --- | --- | --- | --- | --- |
| O=C1CC2CC3(CC2C1)OOC1(O3)C2CC3CC(C2)CC1C3 (stereo not drawn) [OZ12, Adamantane-2-spiro-3′-1′,2′,4′-trioxolane-5′-spiro-3″-7″-oxo-cis-bicyclo[3.3.0]octane] | 6.8 mg/kg | 10.5 mg/kg | 149.8 °C | – | – | – | P. berghei (4 day) ED50 sc [1]: 0.8 mg/kg; P. berghei (4 day) ED90 sc [1]: 1.4 mg/kg |
| O=C(c1ccccc1)N1CCC2(CC1)OOC1(O2)C2CC3CC(C2)CC1C3 (stereo not drawn) [OZ24, Adamantane-2-spiro-3′-8′-benzoyl-1′,2′,4′-trioxa-8′-azaspiro[4.5]decane] | <10/>10 mg/kg | <10/>10 mg/kg | 154.9 °C | 3.9 mg/kg | 9.0 mg/kg | NA/2.1 mg/kg | – |
| CCCC1CCC2(CC1)OOC1(O2)C2CC3CC(C2)CC1C3 (stereo not drawn) [OZ25, Adamantane-2-spiro-3′-8′-propyl-1′,2′,4′-trioxaspiro[4.5]decane] | 1.2 mg/kg | 3.7 mg/kg | 167.7 °C | 1.9 mg/kg | 3.1 mg/kg | 3.0 mg/kg | P. berghei (1 day) ED50 sc [3]: 1.7 mg/kg; oral activity based on po ED50/ED90 values [3]: only slightly less orally active than OZ11; P. berghei (4 day) ED50 sc [1]: 2.2 mg/kg; P. berghei (4 day) ED90 sc [1]: 3.7 mg/kg; antimalarial activity, overall assessment ([4]; overall judgement of in vitro and in vivo data of Table 2): excellent activity |
| c1ccc2c(c1)COC1(CCC3(CC1)OOC1(O3)C3CC4CC(C3)CC1C4)OC2 (stereo not drawn) [OZ31, Adamantane-2-spiro-3′-11′,12′-benzo-1′,2′,4′, 9′,14′-pentaoxadispiro[4.2.6.2]hexadecane] | – | – | 161.1 °C | 1.6 mg/kg | 3.9 mg/kg | 2.4 mg/kg | P. berghei (1 day) ED50 sc [3]: 1.1 mg/kg; Activity (%) po ([4]; single 10 mg/kg po): 99.95/99.95%; Activity (%) sc ([4]; single 10 mg/kg sc): 99.95/99.95% |
| Fc1ccc(C2CCC3(CC2)OOC2(O3)C3CC4CC(C3)CC2C4)cc1 (stereo not drawn) [OZ41, Adamantane-2-spiro-3′-8′-(4′-fluorophenyl)-1′,2′,4′-trioxaspiro[4.5]decane] | – | – | 159.0 °C | 2.8 mg/kg | 5.1 mg/kg | – | – |
| Clc1ccc(C2(c3ccc(Cl)cc3)OOC3(O2)C2CC4CC(C2)CC3C4)cc1 (stereo not drawn) [OZ43, Adamantane-2-spiro-3′-5′, 5′-bis(4′-chlorophenyl)-1′,2′,4′-trioxolane] | – | – | 155.8 °C | 2.1 mg/kg | 4.0 mg/kg | – | oral activity based on po ED50/ED90 values [3]: only slightly less orally active than OZ11; Percentage of dead worm [5]: 0; Total dead worm [5]: 0; TWR (%) ([5]; total worm reduction rate): 1.1%; Mean total worm burden ([5]; x ± SD): 35.4 ± 15.8^a |
| CC(=O)N1CCC2(CC1)OOC1(O2)C2CC3CC(C2)CC1C3 (stereo not drawn) [OZ49, Adamantane-2-spiro-3′-8′-acetyl-1′,2′,4′-trioxa-8′-azaspiro[4.5]decane] | – | – | 155.7 °C | – | – | – | in vitro potency, fold less potent than the analog [6]: 2 fold |
| Adamantane-2-spiro-3′-1′,2′,4′-trioxaspiro[4.5]decan-8′-one pyridinioacetylhydrazone chloride [OZ55] | – | – | – | – | – | – | in vitro potency ([6]; strains not distinguished): quite potent; in vivo activity ([4]; 10 mg/kg po/sc data of Table 2): minimal; Activity (%) po ([4]; single 10 mg/kg po): 45%; Activity (%) sc ([4]; single 10 mg/kg sc): 97%; Survival (days) po ([4]; single 10 mg/kg po): 6.0 days; Survival (days) sc ([4]; single 10 mg/kg sc): 7.3 days |
